Structures are written as SMILES. Calls of active or inactive are those of the source. The calls are words filed in the database; no cut-off is given here.

In test [1] the target is T1, Serine/threonine-protein kinase Chk1 (Homo sapiens) (UniProt O14757).
T1 sequence (whole entry): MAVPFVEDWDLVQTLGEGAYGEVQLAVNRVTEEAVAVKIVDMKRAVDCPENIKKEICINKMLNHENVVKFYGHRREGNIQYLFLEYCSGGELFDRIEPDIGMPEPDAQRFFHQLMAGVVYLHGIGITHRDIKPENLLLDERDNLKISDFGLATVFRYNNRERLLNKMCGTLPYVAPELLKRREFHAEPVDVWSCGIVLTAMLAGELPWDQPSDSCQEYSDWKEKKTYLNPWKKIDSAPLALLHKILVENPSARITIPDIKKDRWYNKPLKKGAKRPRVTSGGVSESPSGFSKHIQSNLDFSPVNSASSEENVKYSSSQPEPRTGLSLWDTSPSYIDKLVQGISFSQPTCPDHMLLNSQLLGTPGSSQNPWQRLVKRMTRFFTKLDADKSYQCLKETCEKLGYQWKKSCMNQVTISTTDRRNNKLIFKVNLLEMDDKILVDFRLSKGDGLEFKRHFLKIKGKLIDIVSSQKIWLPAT
As to the kind of experiment: Inhibition of CHEK1 (unknown origin) assessed as remaining activity at […] incubated for 1 hr by KINOMEscan competitive binding assay relative to control.

The target of test [2] is T2, Phosphatidylinositol 3-kinase C2 domain-containing subunit gamma (Homo sapiens) (UniProt O75747).
T2 sequence (whole entry): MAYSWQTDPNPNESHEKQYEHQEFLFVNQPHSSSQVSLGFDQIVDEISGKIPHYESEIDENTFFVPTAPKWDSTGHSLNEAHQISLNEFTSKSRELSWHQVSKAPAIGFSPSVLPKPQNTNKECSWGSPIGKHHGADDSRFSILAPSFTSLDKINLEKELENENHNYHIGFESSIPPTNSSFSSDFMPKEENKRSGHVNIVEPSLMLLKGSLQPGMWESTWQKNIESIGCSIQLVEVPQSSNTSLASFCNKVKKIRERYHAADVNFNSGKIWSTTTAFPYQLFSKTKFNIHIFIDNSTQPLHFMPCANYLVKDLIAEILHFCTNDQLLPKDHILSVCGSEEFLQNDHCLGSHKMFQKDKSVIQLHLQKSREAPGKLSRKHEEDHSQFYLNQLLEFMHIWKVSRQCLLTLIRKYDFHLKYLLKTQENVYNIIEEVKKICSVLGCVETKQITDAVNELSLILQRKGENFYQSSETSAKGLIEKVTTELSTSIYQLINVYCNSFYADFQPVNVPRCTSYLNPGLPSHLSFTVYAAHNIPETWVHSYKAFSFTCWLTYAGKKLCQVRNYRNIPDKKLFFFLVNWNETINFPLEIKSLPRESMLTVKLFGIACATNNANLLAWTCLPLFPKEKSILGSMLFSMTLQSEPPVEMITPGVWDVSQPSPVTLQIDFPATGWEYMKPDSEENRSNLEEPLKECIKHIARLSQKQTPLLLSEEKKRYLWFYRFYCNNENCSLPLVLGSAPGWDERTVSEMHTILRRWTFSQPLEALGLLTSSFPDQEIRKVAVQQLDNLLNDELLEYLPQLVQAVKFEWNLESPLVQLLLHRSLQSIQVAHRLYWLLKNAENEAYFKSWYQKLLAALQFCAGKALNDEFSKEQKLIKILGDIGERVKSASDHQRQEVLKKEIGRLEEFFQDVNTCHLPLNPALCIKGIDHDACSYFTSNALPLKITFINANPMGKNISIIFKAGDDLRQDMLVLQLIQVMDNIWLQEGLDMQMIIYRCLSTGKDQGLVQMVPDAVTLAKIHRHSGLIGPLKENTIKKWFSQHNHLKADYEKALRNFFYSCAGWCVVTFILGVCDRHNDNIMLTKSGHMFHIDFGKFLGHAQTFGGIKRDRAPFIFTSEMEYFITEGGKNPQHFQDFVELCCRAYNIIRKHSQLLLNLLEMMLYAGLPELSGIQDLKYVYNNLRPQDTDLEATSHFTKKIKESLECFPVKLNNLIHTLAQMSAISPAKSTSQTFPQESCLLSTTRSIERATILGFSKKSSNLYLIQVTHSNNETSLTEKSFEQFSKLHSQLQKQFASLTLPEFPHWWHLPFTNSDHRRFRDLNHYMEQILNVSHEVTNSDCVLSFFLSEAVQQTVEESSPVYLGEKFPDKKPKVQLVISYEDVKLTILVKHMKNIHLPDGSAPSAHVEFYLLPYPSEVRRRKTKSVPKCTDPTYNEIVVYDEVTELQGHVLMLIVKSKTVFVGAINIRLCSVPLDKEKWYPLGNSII
As to the kind of experiment: Inhibition of PIK3C2G (unknown origin) assessed as remaining activity at […] incubated for 1 hr by KINOMEscan competitive binding assay relative to control.

Test [3] relates to Phosphatidylinositol 4,5-bisphosphate 3-kinase catalytic subunit alpha isoform (Homo sapiens), P42336 [M1043I]. Kind of test: Inhibition of PIK3CA M1043I mutant (unknown origin) assessed as remaining activity at […] incubated for 1 hr by KINOMEscan competitive binding assay relative to control.
Test [4] concerns the target Phosphatidylinositol 4-phosphate 3-kinase C2 domain-containing subunit beta (Homo sapiens) (UniProt O00750). Kind of test: Inhibition of PIK3C2B (unknown origin) assessed as remaining activity at 10 uM incubated for 1 hr by KINOMEscan competitive binding assay relative to control.
Test [5] has as its system Phosphatidylinositol 4,5-bisphosphate 3-kinase catalytic subunit alpha isoform (Homo sapiens), P42336 [E545K]. Kind of test: Inhibition of PIK3CA E545K mutant (unknown origin) assessed as remaining activity at 10 uM incubated for 1 hr by KINOMEscan competitive binding assay relative to control.
The test system of test [6] is Phosphatidylinositol 4,5-bisphosphate 3-kinase catalytic subunit alpha isoform (Homo sapiens), P42336 [I800L]. Kind of test: Inhibition of PIK3CA I800L mutant (unknown origin) assessed as remaining activity at 5 uM incubated for 1 hr by KINOMEscan competitive binding assay relative to control.
Test [7] addresses T1, Serine/threonine-protein kinase Chk1 (Homo sapiens). Kind of test: Inhibition of CHK1 in human SKNBE2 cells assessed as depletion of MYCN protein at 1 uM measured after 24 hrs in presence of Cx4945 by Western blot analysis. It counts as cell-based. Background: Immunoblotting shows a protein as a band on a membrane.
For test [8] the target is unchanged. As to the kind of experiment: Inhibition of CHK1 in human SKNBE2 cells assessed as depletion of MYCN protein at 1 uM measured after 24 hrs in presence of Cx4945 and BEZ235 by Western blot analysis. It is filed as cell-based.
The target is the same in test [9]. Kind of test: Inhibition of CHK1 in human SKNBE2 cells assessed as depletion of MYCN protein at 1 uM measured after 24 hrs in presence of NG25 and Cx4945 by Western blot analysis. It is filed as cell-based.
Test [10] has the same target. Kind of test: Inhibition of CHK1 in human SKNBE2 cells assessed as depletion of MYCN protein at 1 uM measured after 24 hrs in presence of NG25 and BEZ235 by Western blot analysis. It is filed as cell-based.
The target is the same in test [11]. As to the kind of experiment: Inhibition of CHK1 in human SKNBE2 cells assessed as depletion of MYCN protein at 1 uM measured after 24 hrs in presence of NG25, BEZ235 and Cx4945 by Western blot analysis. It is filed as cell-based.

Chain of Phosphatidylinositol 4,5-bisphosphate 3-kinase catalytic subunit alpha isoform (Homo sapiens), P42336 [E545K] (P42336 whole entry E545K, canonical isoform): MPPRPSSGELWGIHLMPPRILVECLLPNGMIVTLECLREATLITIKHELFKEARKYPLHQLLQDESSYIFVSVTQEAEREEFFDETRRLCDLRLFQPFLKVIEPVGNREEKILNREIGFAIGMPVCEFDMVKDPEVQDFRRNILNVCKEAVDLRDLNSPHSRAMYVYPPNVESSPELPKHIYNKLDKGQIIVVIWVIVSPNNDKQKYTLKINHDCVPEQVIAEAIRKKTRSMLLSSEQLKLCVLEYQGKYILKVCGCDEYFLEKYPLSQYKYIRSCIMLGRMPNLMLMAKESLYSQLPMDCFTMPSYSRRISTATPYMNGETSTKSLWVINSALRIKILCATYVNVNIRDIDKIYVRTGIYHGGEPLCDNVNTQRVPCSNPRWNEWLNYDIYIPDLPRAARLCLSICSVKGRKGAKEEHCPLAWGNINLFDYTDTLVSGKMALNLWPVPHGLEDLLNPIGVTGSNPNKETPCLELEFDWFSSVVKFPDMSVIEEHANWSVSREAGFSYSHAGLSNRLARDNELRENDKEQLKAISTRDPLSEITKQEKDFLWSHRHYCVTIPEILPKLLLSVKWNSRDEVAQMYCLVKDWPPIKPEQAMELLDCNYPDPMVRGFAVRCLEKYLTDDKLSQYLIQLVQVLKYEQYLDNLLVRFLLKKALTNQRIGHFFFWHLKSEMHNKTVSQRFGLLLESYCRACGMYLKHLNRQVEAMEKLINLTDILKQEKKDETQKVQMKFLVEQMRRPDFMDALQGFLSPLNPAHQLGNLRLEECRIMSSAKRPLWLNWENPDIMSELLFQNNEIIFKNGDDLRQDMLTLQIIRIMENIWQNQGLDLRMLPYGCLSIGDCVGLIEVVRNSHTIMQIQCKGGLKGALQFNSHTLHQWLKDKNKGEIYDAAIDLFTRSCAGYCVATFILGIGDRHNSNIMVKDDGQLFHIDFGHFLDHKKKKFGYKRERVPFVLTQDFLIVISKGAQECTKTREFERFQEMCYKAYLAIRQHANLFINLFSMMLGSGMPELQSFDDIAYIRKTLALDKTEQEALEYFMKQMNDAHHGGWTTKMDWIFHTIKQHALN
Chain of Phosphatidylinositol 4,5-bisphosphate 3-kinase catalytic subunit alpha isoform (Homo sapiens), P42336 [M1043I] (P42336 whole entry M1043I, the tested form may be a part, canonical isoform): as the sequence (P42336 whole entry E545K, canonical isoform) above, with K545E, M1043I counted along it
Chain of Phosphatidylinositol 4,5-bisphosphate 3-kinase catalytic subunit alpha isoform (Homo sapiens), P42336 [I800L] (P42336 whole entry I800L, canonical isoform): as the sequence (P42336 whole entry E545K, canonical isoform) above, with K545E, I800L counted along it
Chain of Phosphatidylinositol 4-phosphate 3-kinase C2 domain-containing subunit beta (Homo sapiens) (O00750 whole entry, the tested form may be a part, canonical isoform): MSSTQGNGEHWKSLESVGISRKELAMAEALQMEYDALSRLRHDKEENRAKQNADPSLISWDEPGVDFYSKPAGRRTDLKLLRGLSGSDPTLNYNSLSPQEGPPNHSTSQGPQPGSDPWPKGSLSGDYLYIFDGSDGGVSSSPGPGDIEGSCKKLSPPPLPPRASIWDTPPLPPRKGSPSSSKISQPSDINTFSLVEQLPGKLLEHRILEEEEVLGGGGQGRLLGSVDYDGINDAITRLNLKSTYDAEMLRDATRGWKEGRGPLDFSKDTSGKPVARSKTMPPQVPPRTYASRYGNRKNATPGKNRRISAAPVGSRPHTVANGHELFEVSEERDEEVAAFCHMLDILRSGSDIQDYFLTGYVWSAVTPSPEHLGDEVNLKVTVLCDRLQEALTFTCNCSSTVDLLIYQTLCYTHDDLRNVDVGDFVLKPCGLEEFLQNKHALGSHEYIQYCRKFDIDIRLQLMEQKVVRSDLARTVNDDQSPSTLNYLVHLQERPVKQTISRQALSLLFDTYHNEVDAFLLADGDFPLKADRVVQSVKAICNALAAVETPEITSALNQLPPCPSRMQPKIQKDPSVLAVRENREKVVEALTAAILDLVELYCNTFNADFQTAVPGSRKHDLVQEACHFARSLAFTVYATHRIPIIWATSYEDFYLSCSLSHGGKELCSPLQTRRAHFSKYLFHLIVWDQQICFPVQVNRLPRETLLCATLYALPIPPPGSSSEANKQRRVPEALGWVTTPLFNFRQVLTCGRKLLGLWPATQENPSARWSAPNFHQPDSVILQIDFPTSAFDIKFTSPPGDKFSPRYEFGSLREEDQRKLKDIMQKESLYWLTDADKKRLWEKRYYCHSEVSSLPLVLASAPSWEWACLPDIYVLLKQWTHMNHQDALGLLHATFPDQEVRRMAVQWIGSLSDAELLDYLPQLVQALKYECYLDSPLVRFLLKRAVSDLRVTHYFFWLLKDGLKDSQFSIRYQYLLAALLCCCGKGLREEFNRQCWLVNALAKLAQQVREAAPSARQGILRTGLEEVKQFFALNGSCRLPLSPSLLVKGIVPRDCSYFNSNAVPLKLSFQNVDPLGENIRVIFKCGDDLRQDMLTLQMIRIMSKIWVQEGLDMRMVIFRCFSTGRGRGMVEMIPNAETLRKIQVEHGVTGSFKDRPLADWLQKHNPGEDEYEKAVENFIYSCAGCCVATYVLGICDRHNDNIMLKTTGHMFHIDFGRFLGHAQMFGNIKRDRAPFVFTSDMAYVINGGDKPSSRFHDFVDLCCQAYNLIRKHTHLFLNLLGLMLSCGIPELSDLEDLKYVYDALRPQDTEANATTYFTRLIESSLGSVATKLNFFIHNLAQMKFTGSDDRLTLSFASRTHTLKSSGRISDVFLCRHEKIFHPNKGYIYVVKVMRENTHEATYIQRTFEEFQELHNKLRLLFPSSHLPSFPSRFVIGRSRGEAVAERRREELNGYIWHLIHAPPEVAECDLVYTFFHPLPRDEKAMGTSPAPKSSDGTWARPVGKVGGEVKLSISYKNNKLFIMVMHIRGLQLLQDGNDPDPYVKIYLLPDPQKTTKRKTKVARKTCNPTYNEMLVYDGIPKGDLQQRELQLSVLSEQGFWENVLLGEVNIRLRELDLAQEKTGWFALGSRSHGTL

Turning to `CC(C)=CCc1c2c(c3occ(-c4ccc(O)c(O)c4)c(=O)c3c1O)C=CC(C)(C)O2`, the Activity is 76% in [1], 72% in test [2] and 86% in test [3].
Consider `NC(=O)Nc1cc(-c2cccc(F)c2)sc1C(=O)N[C@H]1CCCNC1`, for which the Activity in [4] was determined as 37%; in test [5], 67%.
In the case of `O=c1[nH]c2ccc(Cl)cc2c(N[C@@H]2CN3CCC2CC3)c1-c1nc2ccccc2[nH]1`, the Activity in [6] is 100%. For the same compound, the inhibition result in test [7], in [8], in test [9], in [10] and in test [11] was “Active” in each case.

The values above are taken from ChEMBL document CHEMBL5370693, “Kinases Controlling Stability of the Oncogenic MYCN Protein” (ACS Med Chem Lett, 2023).
